Here are results for 27 molecules from ChEMBL document CHEMBL1139424, “Design, synthesis, and acetylcholinesterase inhibitory activity of novel coumarin analogues” (Bioorg Med Chem, 2008).

The target of the assay is Acetylcholinesterase (Electrophorus electricus, UniProt O42275). Nature of the assay: Inhibition of Electrophorus electricus brain AChE by Ellman's method.
Sequence of Acetylcholinesterase (O42275 whole entry): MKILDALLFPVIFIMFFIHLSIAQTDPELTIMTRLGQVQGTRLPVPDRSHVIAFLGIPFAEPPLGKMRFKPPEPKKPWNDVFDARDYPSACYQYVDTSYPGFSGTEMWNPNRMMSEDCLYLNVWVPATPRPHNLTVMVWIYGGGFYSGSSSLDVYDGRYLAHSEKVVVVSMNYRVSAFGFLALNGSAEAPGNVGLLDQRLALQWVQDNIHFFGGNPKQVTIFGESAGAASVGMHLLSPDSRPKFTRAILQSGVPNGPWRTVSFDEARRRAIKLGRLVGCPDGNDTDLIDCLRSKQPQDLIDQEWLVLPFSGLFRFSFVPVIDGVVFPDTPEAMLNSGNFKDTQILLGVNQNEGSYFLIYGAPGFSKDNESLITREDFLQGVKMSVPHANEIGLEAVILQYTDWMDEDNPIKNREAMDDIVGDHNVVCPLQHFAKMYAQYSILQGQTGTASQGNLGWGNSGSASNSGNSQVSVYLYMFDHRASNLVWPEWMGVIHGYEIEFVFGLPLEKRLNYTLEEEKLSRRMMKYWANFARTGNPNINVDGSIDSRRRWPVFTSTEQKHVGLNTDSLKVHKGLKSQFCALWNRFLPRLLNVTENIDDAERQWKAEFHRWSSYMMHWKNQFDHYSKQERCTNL
Take `Cc1ccc(C(=O)N2CCN(c3cc(=O)oc4ccc(C)cc34)CC2)cc1`: the IC50 amounted to 5.3 µM. In turn, `O=C(c1cc2ccccc2oc1=O)N1CCN(c2ccccc2)CC1` came in with an IC50 of 9.3 µM.

The molecule `Cc1ccc2oc(=O)cc(N3CCN(C(=O)c4ccccc4)CC3)c2c1` came in with an IC50 of 7.4 µM. Then `Cc1ccccc1N1CCN(C(=O)c2cc3ccccc3oc2=O)CC1`, with 6.7 µM; and `Cc1ccc2oc(=O)cc(N3CCN(C)CC3)c2c1`, with 901 µM. `O=C(c1cc2ccccc2oc1=O)N1CCN(c2cc(Cl)ccc2Cl)CC1` gave an IC50 of 14 µM. Molecule `Cc1ccc(N2CCN(c3cc(=O)oc4ccc(C)cc34)CC2)cc1` registered an IC50 of 61 µM.

In turn, `Cc1ccc(N2CCN(C(=O)c3cc4ccccc4oc3=O)CC2)cc1` displayed an IC50 of 7.6 µM. In the case of `COc1ccc(N2CCN(c3cc(=O)oc4ccc(C)cc34)CC2)cc1` it was 18 µM. As to `Cc1ccc2oc(=O)cc(N3CCN(c4ccccc4C)CC3)c2c1`, the IC50 was determined as 7.9 µM. In the case of `O=c1cc(Cl)c2cc(CN3CCN(c4ccccc4)CC3)ccc2o1` it was 19 µM; in that of `Cc1ccc(C(=O)N2CCN(C(=O)c3cc4ccccc4oc3=O)CC2)cc1`, 18 µM. In the case of `Cc1ccc2oc(=O)cc(N3CCN(c4cc(Cl)ccc4Cl)CC3)c2c1` it was 827 µM; in that of `Cc1ccc2oc(=O)cc(N3CCN(C(=O)c4ccc(Cl)cc4)CC3)c2c1`, 16 µM; in that of `O=C(c1ccc([N+](=O)[O-])cc1)N1CCN(C(=O)c2cc3ccccc3oc2=O)CC1`, 34 µM. Then `COc1ccccc1N1CCN(c2cc(=O)oc3ccc(C)cc23)CC1`, with 249 µM; and `Cc1ccc2oc(=O)cc(N3CCN(C(=O)c4ccccc4Cl)CC3)c2c1`, with 21 µM. In the case of `COc1ccc(N2CCN(C(=O)c3cc4ccccc4oc3=O)CC2)cc1`, the IC50 stood at 7.5 µM.

As to `O=C(c1ccccc1Cl)N1CCN(C(=O)c2cc3ccccc3oc2=O)CC1`, the IC50 was 26 µM. `O=C(c1ccc(Cl)cc1)N1CCN(C(=O)c2cc3ccccc3oc2=O)CC1` returned an IC50 of 21 µM. In the case of `O=C(c1ccccc1)N1CCN(C(=O)c2cc3ccccc3oc2=O)CC1` it was 15 µM. Then `O=C(c1cc2ccccc2oc1=O)N1CCN(c2ccc(Cl)cc2)CC1`, with 98 µM; and `O=C(c1cc2ccccc2oc1=O)N1CCOCC1`, with 101 µM.

For the molecule `Cc1ccc2oc(=O)cc(N3CCN(c4ccc(Cl)cc4)CC3)c2c1`, the IC50 turned out to be 808 µM.

Consider `Cc1ccc2oc(=O)cc(N3CCN(c4ccccc4)CC3)c2c1`, for which the IC50 came to 4.5 µM. In the case of `Cc1ccc2oc(=O)cc(N3CCOCC3)c2c1` it was 875 µM; in that of `COc1ccccc1N1CCN(C(=O)c2cc3ccccc3oc2=O)CC1`, 11 µM.
